Assay results from patent US9868772B2 (INDIANA UNIVERSITY RESEARCH AND TECHNOLOGY CORPORATION, priority 2012, dated 2018).
Numbered stars: 1 amine (or outer) side, 2 acyl side, 3 side chain; on linkers, the order of the positions; unused ones are H or OH. Square brackets hold non-standard residues; d marks the D form. Side chains are listed from the residue outwards. Peptide text beside a SMILES is read from it. * marks the point of attachment. γGlu = O=C(O)[C@H](CCC(=O)[*:2])N[*:1]; Desaminotyrosyl = O=C(CCc1ccc(O)cc1)*; Palmitoyl = CCCCCCCCCCCCCCCC(=O)*

What was measured:
Experiment in all cases: cAMP induction, firefly luciferase reporter assay in HEK293 cells co-transfected with receptor
Format in all cases: cell-based
GIP receptor = target: T1, GIP receptor (Homo sapiens, UniProt P48546)
T1 construct: expressed in transfected cells; host or cells: HEK293
T1 sequence (P48546 22-466): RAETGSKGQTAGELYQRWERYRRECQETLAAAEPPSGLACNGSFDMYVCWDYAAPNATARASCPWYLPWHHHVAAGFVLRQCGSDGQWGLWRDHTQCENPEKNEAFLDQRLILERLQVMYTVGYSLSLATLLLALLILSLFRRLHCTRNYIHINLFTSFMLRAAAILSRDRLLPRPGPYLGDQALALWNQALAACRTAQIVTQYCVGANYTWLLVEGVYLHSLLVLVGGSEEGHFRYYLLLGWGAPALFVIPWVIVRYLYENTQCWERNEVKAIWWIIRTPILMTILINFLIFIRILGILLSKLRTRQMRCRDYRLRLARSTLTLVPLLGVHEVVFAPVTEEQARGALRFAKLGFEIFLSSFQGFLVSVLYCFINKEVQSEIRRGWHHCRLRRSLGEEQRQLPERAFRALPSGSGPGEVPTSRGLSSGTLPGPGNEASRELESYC
Method: (§1) The ability of glucagon analogs to induce cAMP was measured in a firefly luciferase-based reporter assay. […] At the end of the incubation 100 microliters of LucLite luminescence substrate reagent (Perkin-Elmer, Wellesley, Mass.) were added to each well. […] Effective 50% concentrations were calculated by using Origin software (OriginLab, Northampton, Mass.

GLP-1 receptor = target: T2, GLP-1 receptor (Homo sapiens, UniProt P43220)
T2 construct: expressed in transfected cells; host or cells: HEK293
T2 sequence (P43220 24-463): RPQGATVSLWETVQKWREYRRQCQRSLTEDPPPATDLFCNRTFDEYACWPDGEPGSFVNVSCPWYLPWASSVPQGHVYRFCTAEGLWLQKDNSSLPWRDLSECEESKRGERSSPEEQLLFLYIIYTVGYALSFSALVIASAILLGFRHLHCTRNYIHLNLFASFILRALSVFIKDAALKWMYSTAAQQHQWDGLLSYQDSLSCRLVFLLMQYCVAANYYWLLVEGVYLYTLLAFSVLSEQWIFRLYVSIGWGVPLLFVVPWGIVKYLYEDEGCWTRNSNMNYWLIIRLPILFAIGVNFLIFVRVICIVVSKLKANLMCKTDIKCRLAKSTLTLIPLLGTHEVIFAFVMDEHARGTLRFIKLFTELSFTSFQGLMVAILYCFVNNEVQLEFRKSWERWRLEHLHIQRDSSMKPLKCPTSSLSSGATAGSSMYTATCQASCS
Method: as §1

glucagon receptor = target: T3, glucagon receptor (Homo sapiens, UniProt P47871)
T3 construct: expressed in transfected cells; host or cells: HEK293
T3 sequence (P47871 26-477): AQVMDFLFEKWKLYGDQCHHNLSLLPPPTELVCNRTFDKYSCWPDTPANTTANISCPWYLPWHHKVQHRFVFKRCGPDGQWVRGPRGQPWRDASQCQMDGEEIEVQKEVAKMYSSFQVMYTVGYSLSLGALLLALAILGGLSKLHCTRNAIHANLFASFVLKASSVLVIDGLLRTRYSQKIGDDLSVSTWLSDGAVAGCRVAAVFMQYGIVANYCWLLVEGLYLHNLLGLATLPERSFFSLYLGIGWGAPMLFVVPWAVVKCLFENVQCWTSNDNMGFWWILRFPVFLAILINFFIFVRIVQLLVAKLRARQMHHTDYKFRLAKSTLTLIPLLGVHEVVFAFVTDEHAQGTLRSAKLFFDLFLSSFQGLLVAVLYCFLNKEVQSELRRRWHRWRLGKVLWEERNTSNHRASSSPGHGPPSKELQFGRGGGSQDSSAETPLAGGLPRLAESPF
Method: as §1

[1] = Table 2, analogs of SEQ ID NO: 10
[2] = Table 1, analogs of SEQ ID NO: 37
[3] = Table 3, analogs of SEQ ID NO: 12

SMILES	EC50 (GIP receptor; [1])	EC50 (GLP-1 receptor; [1])	EC50 (glucagon receptor; [1])	EC50 (GIP receptor; [2])	EC50 (GLP-1 receptor; [2])	EC50 (glucagon receptor; [2])	also measured
CCCCCCCCCCCCCCCC(=O)N[C@@H](CCC(=O)NCCCC[C@H](NC(=O)[C@H](CC(=O)O)NC(=O)[C@H](CO)NC(=O)[C@@H](NC(=O)[C@H](Cc1ccccc1)NC(=O)[C@@H](NC(=O)CNC(=O)[C@H](CCC(N)=O)NC(=O)[C@H](C)NC(=O)[C@@H](Cc1c[nH]cn1)NC(C)=O)[C@@H](C)O)[C@@H](C)O)C(=O)N[C@@H](CO)C(=O)N[C@@H](CCCCN)C(=O)N[C@@H](Cc1ccc(O)cc1)C(=O)N[C@@H](CC(C)C)C(=O)N[C@@H](CC(=O)O)C(=O)N[C@@H](CCC(=O)O)C(=O)N[C@@H](CCCNC(=N)N)C(=O)N[C@@H](C)C(=O)N[C@@H](C)C(=O)N[C@@H](CCC(N)=O)C(=O)N[C@@H](CC(=O)O)C(=O)N[C@@H](Cc1ccccc1)C(=O)N[C@H](C(=O)N[C@@H](CCC(N)=O)C(=O)N[C@@H](Cc1c[nH]c2ccccc12)C(=O)N[C@@H](CC(C)C)C(=O)N[C@@H](CC(C)C)C(=O)N[C@@H](CCC(=O)O)C(=O)N[C@@H](C)C(=O)NCC(=O)N1CCC[C@H]1C(=O)N[C@@H](CO)C(=O)N[C@@H](CO)C(=O)NCC(=O)N[C@@H](C)C(=O)N1CCC[C@H]1C(=O)N1CCC[C@H]1C(=O)N1CCC[C@H]1C(=O)N[C@@H](CO)C(N)=O)C(C)C)C(=O)O [compound 151] (Ac-[dH]AQGTFTSDK([γGlu-Palmitoyl])SKYLDERAAQDFVQWLLEAGPSSGAPPPS-NH2)	14 pM	2 pM	3 pM				
CCCCCCCCCCCCCCCC(=O)N[C@@H](CCC(=O)NCCCC[C@H](NC(=O)[C@H](CC(=O)O)NC(=O)[C@H](CO)NC(=O)[C@@H](NC(=O)[C@H](Cc1ccccc1)NC(=O)[C@@H](NC(=O)CNC(=O)[C@H](CCC(N)=O)NC(=O)[C@H](C)NC(=O)[C@H](N)Cc1ccc(O)cc1)[C@@H](C)O)[C@@H](C)O)C(=O)N[C@@H](CO)C(=O)N[C@@H](CCCCN)C(=O)N[C@@H](Cc1ccc(O)cc1)C(=O)N[C@@H](CC(C)C)C(=O)N[C@@H](CC(=O)O)C(=O)N[C@@H](CCC(=O)O)C(=O)N[C@@H](CCCNC(=N)N)C(=O)N[C@@H](C)C(=O)N[C@@H](C)C(=O)N[C@@H](CCC(N)=O)C(=O)N[C@@H](CC(=O)O)C(=O)N[C@@H](Cc1ccccc1)C(=O)N[C@H](C(=O)N[C@@H](CCC(N)=O)C(=O)N[C@@H](Cc1c[nH]c2ccccc12)C(=O)N[C@@H](CC(C)C)C(=O)N[C@@H](CC(C)C)C(=O)N[C@@H](CCC(=O)O)C(=O)NCC(=O)NCC(=O)N1CCC[C@H]1C(=O)N[C@@H](CO)C(=O)N[C@@H](CO)C(=O)NCC(=O)N[C@@H](C)C(=O)N1CCC[C@H]1C(=O)N1CCC[C@H]1C(=O)N1CCC[C@H]1C(=O)N[C@@H](CO)C(N)=O)C(C)C)C(=O)O [compound 15]				8 pM	4 pM	50 pM	
CCCCCCCCCCCCCCCC(=O)N[C@@H](CCC(=O)NCCCC[C@H](NC(=O)[C@H](CC(=O)O)NC(=O)[C@H](CO)NC(=O)[C@@H](NC(=O)[C@H](Cc1ccccc1)NC(=O)[C@@H](NC(=O)CNC(=O)[C@H](CCC(N)=O)NC(=O)[C@H](C)NC(=O)[C@@H](Cc1ccccc1)NC(C)=O)[C@@H](C)O)[C@@H](C)O)C(=O)N[C@@H](CO)C(=O)N[C@@H](CCCCN)C(=O)N[C@@H](Cc1ccc(O)cc1)C(=O)N[C@@H](CC(C)C)C(=O)N[C@@H](CC(=O)O)C(=O)N[C@@H](CCC(=O)O)C(=O)N[C@@H](CCCNC(=N)N)C(=O)N[C@@H](C)C(=O)N[C@@H](C)C(=O)N[C@@H](CCC(N)=O)C(=O)N[C@@H](CC(=O)O)C(=O)N[C@@H](Cc1ccccc1)C(=O)N[C@H](C(=O)N[C@@H](CCC(N)=O)C(=O)N[C@@H](Cc1c[nH]c2ccccc12)C(=O)N[C@@H](CC(C)C)C(=O)N[C@@H](CC(C)C)C(=O)N[C@@H](CCC(=O)O)C(=O)NCC(=O)NCC(=O)N1CCC[C@H]1C(=O)N[C@@H](CO)C(=O)N[C@@H](CO)C(=O)NCC(=O)N[C@@H](C)C(=O)N1CCC[C@H]1C(=O)N1CCC[C@H]1C(=O)N1CCC[C@H]1C(=O)N[C@@H](CO)C(N)=O)C(C)C)C(=O)O [compound 150]	11 pM	2 pM	14 pM				
CCCCCCCCCCCCCCCC(=O)N[C@@H](CCC(=O)NCCCC[C@H](NC(=O)[C@H](CC(=O)O)NC(=O)[C@H](CO)NC(=O)[C@@H](NC(=O)[C@H](Cc1ccccc1)NC(=O)[C@@H](NC(=O)CNC(=O)[C@H](CCC(N)=O)NC(=O)[C@H](C)NC(=O)[C@@H](Cc1ccc(O)cc1)NC(C)=O)[C@@H](C)O)[C@@H](C)O)C(=O)N[C@@H](CO)C(=O)N[C@@H](CCCCN)C(=O)N[C@@H](Cc1ccc(O)cc1)C(=O)N[C@@H](CC(C)C)C(=O)N[C@@H](CC(=O)O)C(=O)N[C@@H](CCC(=O)O)C(=O)N[C@@H](CCCNC(=N)N)C(=O)N[C@@H](C)C(=O)N[C@@H](C)C(=O)N[C@@H](CCC(N)=O)C(=O)N[C@@H](CC(=O)O)C(=O)N[C@@H](Cc1ccccc1)C(=O)N[C@H](C(=O)N[C@@H](CCC(N)=O)C(=O)N[C@@H](Cc1c[nH]c2ccccc12)C(=O)N[C@@H](CC(C)C)C(=O)N[C@@H](CC(C)C)C(=O)N[C@@H](CCC(=O)O)C(=O)NCC(=O)NCC(=O)N1CCC[C@H]1C(=O)N[C@@H](CO)C(=O)N[C@@H](CO)C(=O)NCC(=O)N[C@@H](C)C(=O)N1CCC[C@H]1C(=O)N1CCC[C@H]1C(=O)N1CCC[C@H]1C(=O)N[C@@H](CO)C(N)=O)C(C)C)C(=O)O [compound 12]				2 pM	3 pM	7 pM	
CCCCCCCCCCCCCCCC(=O)N[C@@H](CCC(=O)NCCCC[C@H](NC(=O)[C@H](CC(=O)O)NC(=O)[C@H](CO)NC(=O)[C@@H](NC(=O)[C@H](Cc1ccccc1)NC(=O)[C@@H](NC(=O)CNC(=O)[C@H](CCC(N)=O)NC(=O)[C@H](C)NC(=O)[C@@H](Cc1ccc(O)cc1)NC(C)=O)[C@@H](C)O)[C@@H](C)O)C(=O)N[C@@H](CO)C(=O)N[C@@H](CCCCN)C(=O)N[C@@H](Cc1ccc(O)cc1)C(=O)N[C@@H](CC(C)C)C(=O)N[C@@H](CC(=O)O)C(=O)N[C@@H](CCC(=O)O)C(=O)N[C@@H](CCCNC(=N)N)C(=O)N[C@@H](C)C(=O)N[C@@H](C)C(=O)N[C@@H](CCC(N)=O)C(=O)N[C@@H](CC(=O)O)C(=O)N[C@@H](Cc1ccccc1)C(=O)N[C@H](C(=O)N[C@@H](CCC(N)=O)C(=O)N[C@@H](Cc1c[nH]c2ccccc12)C(=O)N[C@@H](CC(C)C)C(=O)N[C@@H](CC(C)C)C(=O)N[C@@H](CCC(=O)O)C(=O)N[C@@H](C)C(=O)NCC(=O)N1CCC[C@H]1C(=O)N[C@@H](CO)C(=O)N[C@@H](CO)C(=O)NCC(=O)N[C@@H](C)C(=O)N1CCC[C@H]1C(=O)N1CCC[C@H]1C(=O)N1CCC[C@H]1C(=O)N[C@@H](CO)C(N)=O)C(C)C)C(=O)O [compound 146] (Ac-[dY]AQGTFTSDK([γGlu-Palmitoyl])SKYLDERAAQDFVQWLLEAGPSSGAPPPS-NH2)							EC50 (GIP receptor; [3]): 6 pM; EC50 (GLP-1 receptor; [3]): 7 pM; EC50 (glucagon receptor; [3]): 9 pM
CCCCCCCCCCCCCCCC(=O)NCCCC[C@H](NC(=O)[C@H](CO)NC(=O)[C@@H]1CCCN1C(=O)[C@@H]1CCCN1C(=O)[C@@H]1CCCN1C(=O)[C@H](C)NC(=O)CNC(=O)[C@H](CO)NC(=O)[C@H](CO)NC(=O)[C@@H]1CCCN1C(=O)CNC(=O)CNC(=O)[C@H](CCC(=O)O)NC(=O)[C@H](CC(C)C)NC(=O)[C@H](CC(C)C)NC(=O)[C@H](Cc1c[nH]c2ccccc12)NC(=O)[C@H](CCC(N)=O)NC(=O)[C@@H](NC(=O)[C@H](Cc1ccccc1)NC(=O)[C@H](CC(=O)O)NC(=O)[C@H](CCC(N)=O)NC(=O)[C@H](C)NC(=O)[C@H](C)NC(=O)[C@H](CCCNC(=N)N)NC(=O)[C@H](CCC(=O)O)NC(=O)[C@H](CC(=O)O)NC(=O)[C@H](CC(C)C)NC(=O)[C@H](Cc1ccc(O)cc1)NC(=O)[C@H](CCCCN)NC(=O)[C@H](CO)NC(=O)[C@H](Cc1ccc(O)cc1)NC(=O)[C@H](CC(=O)O)NC(=O)[C@H](CO)NC(=O)[C@@H](NC(=O)[C@H](Cc1ccccc1)NC(=O)[C@@H](NC(=O)CNC(=O)[C@H](CCC(N)=O)NC(=O)[C@H](C)NC(=O)CCc1ccc(O)cc1)[C@@H](C)O)[C@@H](C)O)C(C)C)C(=O)NCC(N)=O [compound 157] (Desaminotyrosyl-AQGTFTSDYSKYLDERAAQDFVQWLLEGGPSSGAPPPSK(Palmitoyl)G-NH2)	59 pM	13 pM	47 pM				
